Measurements from patent US20180055915A1, “COMPOSITIONS AND METHODS FOR TREATING PROSTATE CANCER” (UNIVERSITY OF ROCHESTER, priority 2016, published 2018).
Residues, ends and D or L forms follow the SMILES beside them. *: point of attachment. Cbz = O=C(OCc1ccccc1)*

Tests used:
PCa cell = conditions: in vitro and in vivo; cited from earlier work
[1] = CRPC patients; cited from earlier work
Enz-S1-C4-2 cells = assay: Enz sensitivity after 2 months treatment (MTT proliferation); assay type: cell-based
Description: (§1) Cells were seeded in 24-well plates (5×10^3 cells/500 μL media per well) and cultured for 0, 2, 4 and 6 days. Cells were harvested and cell numbers and absorbance were calculated and recorded after using yellow tetrazolium MTT (3-(4, 5-dimethylthiazolyl-2)-2,5-diphenyltetrazolium bromide agent.

EnzR1-C4-2 cells = assay: MTT cell proliferation assay, EnzR1-C4-2; assay type: cell-based; conditions: 20 uM Enz alone, FIG. 2A
Description: as §1

ARv7 mRNA = ARv7 mRNA expression (real-time PCR); assay type: cell-based; conditions: Enz-S1-C4-2 cells, Enz treatment, FIG. 3D
Description: Total RNAs were isolated using Trizol reagent (Invitrogen, Grand Island, N.Y.). 2 μg of total RNA was subjected to reverse transcription using Superscript III transcriptase (Invitrogen). Quantitative real-time PCR (qRT-PCR) was conducted using a Bio-Rad CFX96 system with SYBR green to determine the mRNA expression level of a gene of interest. Expression levels were normalized to the expression of GAPDH.

[2] = tested on: wild type AR, ARv7, AR-F876L; conditions: cited from earlier work
ARv7 = target: T1, ARv7 (Homo sapiens, UniProt P10275); assay: ARv7 protein expression/degradation in CRPC cells (western blot); assay type: cell-based; conditions: MG132 with Cis 6 hrs, FIG. 4B
T1 construct: endogenous in cells; host or cells: EnzR1 C4-2, EnzR3 C4-2B, EnzR2 CWR22Rv1
T1 sequence (P10275 1-644 isoform P10275-3): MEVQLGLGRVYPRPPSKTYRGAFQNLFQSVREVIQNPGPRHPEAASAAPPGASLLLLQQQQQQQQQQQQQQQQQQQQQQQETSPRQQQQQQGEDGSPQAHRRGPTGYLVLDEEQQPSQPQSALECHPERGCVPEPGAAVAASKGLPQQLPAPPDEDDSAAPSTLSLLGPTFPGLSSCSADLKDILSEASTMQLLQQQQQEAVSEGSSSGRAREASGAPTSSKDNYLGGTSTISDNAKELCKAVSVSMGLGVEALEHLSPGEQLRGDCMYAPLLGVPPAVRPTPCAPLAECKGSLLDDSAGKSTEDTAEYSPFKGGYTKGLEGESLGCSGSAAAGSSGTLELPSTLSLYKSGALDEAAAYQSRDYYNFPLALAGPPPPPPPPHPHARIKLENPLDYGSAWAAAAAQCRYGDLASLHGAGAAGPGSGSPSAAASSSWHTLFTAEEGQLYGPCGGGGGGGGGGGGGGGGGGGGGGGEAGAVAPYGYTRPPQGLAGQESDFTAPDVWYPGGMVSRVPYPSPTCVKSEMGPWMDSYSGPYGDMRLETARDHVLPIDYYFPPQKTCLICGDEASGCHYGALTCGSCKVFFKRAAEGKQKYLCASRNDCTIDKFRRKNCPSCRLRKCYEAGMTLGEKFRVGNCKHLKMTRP
Description: To further dissect the mechanism(s) why Cis can decrease ARv7 (and AR) protein expression, first assayed was the Cis effects on ARv7 (and AR) protein stability with protein biosynthesis inhibitor, cycloheximide (CHX) and proteasome inhibitor MG132 in EnzR2-CWR22Rv1 cells.
For protein degradation, EnzR C4-2 cells were treated with 1 μg/mL Cisplatin for 6 hr. Cycloheximide or MG132 was added for another 4 hrs. For ubiquitination, human kidney epithelial HEK293T cells were grown in DMEM media with 10% FCS. Cells were plated at ˜60% confluency and pGFP-ubiquitin, pAR were transiently transfected into cells using CaCl2 reagent. After 48 hrs. of transfection, cells were treated with 1 μg/mL Cisplatin for 6 hrs. […], MG132, was added for another 4 hrs. Cell extracts were analyzed for AR degradation or AR-ubiquitination by using western blot.
Cells were lysed in lysis buffer and proteins (50 μg) were separated on 10% SDS/PAGE gel and then transferred onto PVDF membranes (Millipore, Billerica, Mass.). After blocking membranes with 5% milk, they were incubated with appropriate dilutions of specific primary antibodies (anti-AR (N-20), anti-SF2, anti-GFP, anti-GAPDH, anti-a-tubulin). The blots were incubated with HRP-conjugated secondary antibodies and visualized using ECL system (Thermo Fisher Scientific, Rochester, N.Y.).

For `O=C(Nc1ccc([N+](=O)[O-])cc1Cl)c1cc(Cl)ccc1O` [niclosamide], the PCa cell growth (PCa cell) is listed as “suppress the PCa cell growth in vitro and in vivo”.
For `CNC(=O)c1ccc(N2C(=S)N(c3ccc(C#N)c(C(F)(F)F)c3)C(=O)C2(C)C)cc1F` [Enz, 4-(3-(4-Cyano-3-(trifluoromethyl)phenyl)-5,5-dimethyl-4-oxo-2-thioxoimidazolidin-1-yl)-2-fluoro-N-methylbenzamide], the “extension of overall survival (average)” value [1] is given as 4.8 months, the Enz sensitivity (Enz-S1-C4-2 cells; Enz-S1-C4-2 cells before long-term treatment, FIG. 3A) is given as 54% and the Enz sensitivity (Enz-S1-C4-2 cells; after 10 uM Enz alone for 2 months, FIG. 3B) is given as 38%. For the same compound, the “suppression of cell growth” value (EnzR1-C4-2 cells) was “little effect” and the “ARv7 mRNA expression” value (ARv7 mRNA) was “led to increase ARv7 mRNA expression”.
For `COc1ccc(/C=C/C(=O)/C=C(O)/C=C/c2ccc(OC)c(OC)c2)cc1OC` [ASC-J9®], the “degradation of wild type AR, ARv7 and AR mutants including AR-F876L” value [2] is given as “could degrade both wild type AR and the AR variant ARv7 or AR mutants including AR-F876L”.
For `CC(O)(CS(=O)(=O)c1ccc(F)cc1)C(=O)Nc1ccc(C#N)c(C(F)(F)F)c1` (stereo not drawn) [Casodex], the “degradation of wild type AR, ARv7 and AR mutants including AR-F876L” value [2] is given as “not”.
For `CC(C)C[C@@H](C=O)NC(=O)[C@H](CC(C)C)NC(=O)[C@H](CC(C)C)NC(=O)OCc1ccccc1` [MG132] (Cbz-Leu-Leu-Leu-aldehyde), the “effect on Cis-induced ARv7 (and AR) degradation” value (ARv7) was “attenuate/inhibit the effect of Cis on ARv7 (and AR) degradation”.
